{
  "source": "paper PMC6479402",
  "about": "“Anti-Herpetic, Anti-Dengue and Antineoplastic Activities of Simple and Heterocycle-Fused Derivatives of Terpenyl-1,4-Naphthoquinone and 1,4-Anthraquinone” (Molecules, 2019)",
  "key": {"Jurkat": {"system": "Jurkat", "assay": "MTT cytotoxicity assay", "format": "cell-based", "conditions": "Homo sapiens, Jurkat ATCC TIB-152, 48 h, read-out: IC50 ± SD, Jurkat", "procedure": "(§1) Then, each diluted molecule was added to the cells and incubated for further 48 h at 37 °C, 5% CO2. […] The DMSO was then added to dissolve the formed formazan crystals and absorbance was determined spectrophotometrically at 570 nm. […] IC50 values were expressed as the mean ± standard deviation (M ± SD) of two independent experiments done in quadruplicate."}, "HeLa": {"system": "HeLa", "assay": "MTT cytotoxicity assay", "format": "cell-based", "conditions": "Homo sapiens, HeLa ATCC CRL-1958, 48 h, read-out: IC50 ± SD, HeLa", "procedure": "as §1"}, "HHV-1 [1]": {"system": "HHV-1", "assay": "HHV-1 viral attachment assay on Vero cells (plaque reduction)", "format": "cell-based, Human Herpesvirus 1", "conditions": "Human alphaherpesvirus 1, Vero", "procedure": "The effect of NQ 4 in the initial phases of the HHV-1 viral replication was done as previously described by Cardozo et al., 2011 [53]. In the attachment assay, pre-chilled (1 h at 4 °C) Vero cell monolayers were exposed to viruses (100 PFU/well) in presence or absence of the compound and were incubated for 2 h at 4 °C. After incubation, the substance and unbounded viruses were removed with cold PBS; cells were overlaid with CMC 1% and incubated for 72 h at 37 °C (5% CO2). In the entry assay, pre-chilled cells were infected with viruses (100 PFU/well) and incubated for 2 h at 4 °C. After this time, the unbound viruses were removed with cold PBS; cells were treated with different concentrations of pre-warmed compound, and then incubated for 1 h at 37 °C. Unabsorbed viruses were inactivated using citrate buffer (pH = 3.0) and then cells were washed with PBS, overlaid with CMC 1%, and incubated for 72 h at 37 °C (5% CO2). In both assays, further procedures were the same mentioned previously for the plaque reduction assay and dextran sulfate (DS) was included as positive control.\nIn these tests, the evaluated NQ 4 concentration range was from 0.1 to 0.8 µg/mL and the effective concentration fifty (EC50), the concentration that reduces the 50% of plaque forming units, was determined from dose-effect curves by linear regression methods for each compound. […]"}, "HHV-1 [2]": {"system": "HHV-1", "assay": "Plaque reduction assay, simultaneous and post-infection treatment, Vero cells", "format": "cell-based, Human Herpesvirus 1", "procedure": "(§2) To define the stage of the viral replicative cycle where NQ 4 exerts its action, simultaneous and post-infection treatments against HHV-1 and HHV-2 were performed. […] First, we determined the inhibitory concentration 50% (IC50) for the compound and drug positive controls on infected cells and their effects on non-tumoral Vero cells, to define the concentration of evaluation and to calculate the antiviral selectivity index (SI). Then, the concentration of NQ 4 that reduced the number of viral plaques by 50% (EC50) was determined from the dose-response curves.\n(§3) The potential antiviral mechanism of NQ 4 was evaluated by the plaque reduction assay as previously described by us. Vero cell monolayers grown in 24-well plates were infected with 100 PFU/well of each virus. For simultaneous treatment, the compound and the virus were added simultaneously to the cell monolayers and incubated for 1 h at 37 °C (5% CO2). Then, cells were washed with phosphate buffered saline (PBS, pH = 7.0) and CMC at 1% and 0.75% was added for HHV-1 and HHV-2, respectively. In post-infection treatment, virus was added to cell monolayer and incubated for 1 h at 37 °C (5% CO2). After incubation, washing was performed with PBS and molecule previously prepared in CMC 1% and 0.75% for HHV-1 and HHV-2 respectively, was added. In both treatments, NQ 4 was prepared at concentrations from 0.4 µg/mL to 3.1 µg/mL and the cell monolayers allowed to incubate for 72 h. Subsequently, cells were fixed and stained with a solution of 3.5% formaldehyde with 0.2% crystal violet, and the viral plaques were counted. Dextran sulfate (DS) was included as positive control in simultaneous assay and acyclovir (A) was the positive control in after infection treatment."}, "[3]": {"system": "Human Herpesvirus type 2 (HHV-2)", "assay": "End-point titration technique (EPTT), anti-herpetic screening on infected Vero cells", "format": "cell-based, Human Herpesvirus 2", "conditions": "for Rf (reduction factor of the viral titer), HHV-2: 10 TCID50, 48 h", "procedure": "The in vitro antiviral evaluation of the 27 substances against Human Herpesvirus type 1 (HHV-1) and 2 (HHV-2) was made on infected Vero cells, using the end-point titration technique (EPTT).\nThe antiviral activity of molecules against 1 and 10 Cell Culture Infectious Dose 50% (10TCID50) of HHV-1 and HHV-2, respectively, was determined using end-point titration technique (EPTT). Vero cells grown in 96-well plates at a density of 2.0 × 10^4 cells/well were incubated at 37 °C in 5% CO2 atmosphere until constitute 80% of cell monolayer. Then, viral suspensions of HHV-1 or HHV-2 with concentrations of 6.25 µg/mL to 50 µg/mL of compounds were performed in DMEM supplemented with 2% FBS containing 1% and 0.5% carboxymethylcellulose (CMC) for HHV-1 and HHV-2, respectively. Mixture was incubated during 15 minutes at room temperature and was added to the cell monolayer. After 48 h of incubation at 37 °C (5% CO2), the cytopathic effect was examined, the microplates were fixed with 3.5% formaldehyde and stained with 0.2% crystal violet. Two independent experiments by quadruplicate for each viral serotype and each were carried out. Positive controls, such as dextran sulfate (DS) and acyclovir (A) for early stages and late stages of infection, respectively, were included."}, "HHV-2": {"system": "HHV-2", "assay": "Plaque reduction assay, simultaneous and post-infection treatment, Vero cells", "format": "cell-based, Human Herpesvirus 2", "procedure": "as §2, §3"}, "DENV-2": {"system": "DENV-2", "assay": "Plaque reduction assay, simultaneous and post-infection treatment, BHK-21 cells", "format": "cell-based, Dengue virus type 2", "procedure": "as §2\nAgainst DENV, the effect of NQ 4 either simultaneously or post-infection was also evaluated by the plaque reduction assay as previously described. Concentrations employed for this assay were from 0.4 µg/mL to 1.6 µg/mL. In this test, BHK-21 cell monolayers grown in 24-well plates were infected with 100 PFU/well of DENV-2 and treatments were performed in the same way to describe for Herpesviruses. Moreover, the monolayers were incubated for 6 days, fixed and stained with a solution of 3.5% formaldehyde with 0.2% crystal violet, and the viral plaques were counted. Heparin (H) was included as a positive control in the simultaneous assay, and ribavirin (R) was the positive control in after infection treatment."}, "[4]": {"conditions": "post-infective stages, acyclovir 1.5 µg/mL"}, "[5]": {"conditions": "simultaneous treatment, PFU, NQ 4 0.4–3.1 µg/mL, DS 5 µg/mL"}},
  "note": "Values joined by “and” are separate entries in the source; they are usually repeats but may differ in a detail not shown here. Identical values can stand only once.",
  "data": [
    {"compound": "CC(C)CCCc1ccc2c(c1)C(=O)C(Cl)=C(Cl)C2=O", "note": "[NQ 4]", "values": [
      {"measurement": "IC50", "setting": "Jurkat", "value": "36.3 ± 2", "unit": "µM"},
      {"measurement": "IC50", "setting": "HeLa", "value": "46.6 ± 3.3", "unit": "µM"},
      {"measurement": "EC50", "setting": "HHV-1 [1]", "value": 0.38, "unit": "µM"},
      {"measurement": "EC50", "setting": "HHV-1 [1]; 2 h at 4 °C, 0.1–0.8 µg/mL", "value": 0.12, "unit": "µg/mL"},
      {"measurement": "EC50", "setting": "HHV-1 [2]; Human alphaherpesvirus 1, simultaneous treatment, read-out: EC50, anti-herpetic activity on pre-infective stages, HHV-1", "value": "< 0.4 µg/mL and < 1.28 µM"},
      {"measurement": "Antiviral activity in post-infection treatment, HHV-1", "setting": "HHV-1 [2]; [4]", "value": "no activity"},
      {"measurement": "Antiviral activity in simultaneous treatment, HHV-1", "setting": "HHV-1 [2]; [5]", "value": "anti-herpetic activity in all concentrations tested"},
      {"measurement": "Rf (reduction factor of the viral titer), HHV-2", "setting": "[3]", "value": "1 × 10^2"},
      {"measurement": "Rf (reduction factor of the viral titer), HHV-2", "setting": "[3]; listed as 4", "value": "10^2"},
      {"measurement": "minimal effective concentration", "setting": "[3]; Human alphaherpesvirus 2, 10 TCID50, 48 h, tested 6.25-50 µg/mL, read-out: 10 TCID50: non-toxic concentration that showed viral reduction factor, HHV-2", "value": 12.5, "unit": "µg/mL"},
      {"measurement": "EC50", "setting": "HHV-2; Human alphaherpesvirus 2, simultaneous treatment, read-out: EC50, anti-herpetic activity on pre-infective stages, HHV-2", "value": "< 0.4 µg/mL and < 1.28 µM"},
      {"measurement": "Antiviral activity in post-infection treatment, HHV-2", "setting": "HHV-2; [4]", "value": "no activity"},
      {"measurement": "Antiviral activity in simultaneous treatment, HHV-2", "setting": "HHV-2; [5]", "value": "anti-herpetic activity in all concentrations tested"},
      {"measurement": "Antiviral activity in post-infection treatment, DENV-2", "setting": "DENV-2; post-infective stages, ribavirin 3.7 µg/mL", "value": "no activity"},
      {"measurement": "Concentration showing antiviral activity against DENV-2", "setting": "DENV-2; pre-infective stages", "value": 5.1, "unit": "µM"},
      {"measurement": "Concentration showing significant antiviral activity against DENV-2", "setting": "DENV-2; simultaneous treatment (pre-infective stages), tested 0.4–1.6 µg/mL", "value": 1.6, "unit": "µg/mL"}
    ]}
  ]
}
